Laboratory results published in patent US10710978B2, “STK4 inhibitors for treatment of hematologic malignancies” (Dana-Farber Cancer Institute, Inc., priority 2015, dated 2020).
Where two headings read alike, the source gives them in different places.

Tests used:
Assay in all cases: KiNativ assay
Format in all cases: binding
[1] = tested on: Wnk1, Wnk2, Wnk3; details: H929 live cell
Protocol: (§1) Biochemical IC50s of the compounds of the present disclosure against various kinases were measured in a KiNativ assay. Compounds were screened in duplicate at 10 μM in H929 live cell. IC50 was measured via Mass spectroscopy (MS).

[2] = target: SRPK2 (Homo sapiens (Human), UniProt P78362); details: H929 live cell
Protocol: as §1

[3] = tested on: JNK1, JNK2, JNK3; details: H929 live cell
Protocol: as §1

[4] = target: JAK1 domain1 (Homo sapiens (Human), UniProt P23458); details: H929 live cell
Protocol: as §1

[5] = target: MST1 (Homo sapiens (Human), UniProt Q13043); details: H929 live cell
Protocol: as §1

[6] = tested on: MAP2K1, MAP2K2; details: 10 μM, H929 live cell; range class
Protocol: as §1

[7] = target: KHS1 (Homo sapiens (Human), UniProt Q9Y4K4); details: H929 live cell
Protocol: as §1

[8] = target: RSK2 domain1 (Homo sapiens (Human), UniProt P51812); details: H929 live cell
Protocol: as §1

[9] = target: ZAK (Homo sapiens (Human), UniProt Q9NYL2); details: H929 live cell
Protocol: as §1

[10] = target: IRE1 (Homo sapiens (Human), UniProt O75460); details: H929 live cell
Protocol: as §1

[11] = target: ACK (Homo sapiens (Human), UniProt Q07912); details: H929 live cell
Protocol: as §1

[12] = target: p70S6K (Homo sapiens (Human), UniProt P23443); details: H929 live cell
Protocol: as §1

[13] = target: GCK (Homo sapiens (Human), UniProt Q12851); details: H929 live cell
Protocol: as §1

[14] = target: MAP3K1 (Homo sapiens (Human), UniProt Q13233); details: H929 live cell
Protocol: as §1

[15] = target: p70S6Kb (Homo sapiens (Human), UniProt Q9UBS0); details: H929 live cell
Protocol: as §1

[16] = target: MARK4 (Homo sapiens (Human), UniProt Q96L34); details: H929 live cell
Protocol: as §1

[17] = target: ULK1 (Homo sapiens (Human), UniProt O75385); details: H929 live cell
Protocol: as §1

[18] = target: PEK (Homo sapiens (Human), UniProt Q9NZJ5); details: H929 live cell
Protocol: as §1

[19] = tested on: MST1, MST2; details: H929 live cell
Protocol: as §1

[20] = target: MAP3K2 (Homo sapiens (Human), UniProt Q9Y2U5); details: H929 live cell
Protocol: as §1

[21] = target: NEK4 (Homo sapiens (Human), UniProt P51957); details: H929 live cell
Protocol: as §1

[22] = target: PAN3 (Homo sapiens (Human), UniProt Q58A45); details: H929 live cell
Protocol: as §1

[23] = target: PKD2 (Homo sapiens (Human), UniProt Q9BZL6); details: H929 live cell
Protocol: as §1

[24] = target: JAK1 domain2 (Homo sapiens (Human), UniProt P23458); details: H929 live cell
Protocol: as §1

[25] = target: AKT1 (Homo sapiens (Human), UniProt P31749); details: H929 live cell
Protocol: as §1

[26] = tested on: PITSLRE; details: H929 live cell
Protocol: as §1

[27] = target: IRAK1 (Homo sapiens (Human), UniProt P51617); details: H929 live cell
Protocol: as §1

[28] = tested on: NEK6, NEK7; details: H929 live cell
Protocol: as §1

[29] = target: MAP3K5 (Homo sapiens (Human), UniProt Q99683); details: H929 live cell
Protocol: as §1

[30] = target: PRPK (Homo sapiens (Human), UniProt Q96S44); details: H929 live cell
Protocol: as §1

[31] = target: MAP2K4 (Homo sapiens (Human), UniProt P45985); details: H929 live cell
Protocol: as §1

[32] = target: STLK6 (Homo sapiens (Human), UniProt Q9C0K7); details: H929 live cell
Protocol: as §1

[33] = target: SMG1 (Homo sapiens (Human), UniProt Q96Q15); details: H929 live cell
Protocol: as §1

[34] = target: NuaK2 (Homo sapiens (Human), UniProt Q9H093); details: H929 live cell
Protocol: as §1

[35] = range class, read-out: % inhibition

GCK, sequence (Q12851 whole entry): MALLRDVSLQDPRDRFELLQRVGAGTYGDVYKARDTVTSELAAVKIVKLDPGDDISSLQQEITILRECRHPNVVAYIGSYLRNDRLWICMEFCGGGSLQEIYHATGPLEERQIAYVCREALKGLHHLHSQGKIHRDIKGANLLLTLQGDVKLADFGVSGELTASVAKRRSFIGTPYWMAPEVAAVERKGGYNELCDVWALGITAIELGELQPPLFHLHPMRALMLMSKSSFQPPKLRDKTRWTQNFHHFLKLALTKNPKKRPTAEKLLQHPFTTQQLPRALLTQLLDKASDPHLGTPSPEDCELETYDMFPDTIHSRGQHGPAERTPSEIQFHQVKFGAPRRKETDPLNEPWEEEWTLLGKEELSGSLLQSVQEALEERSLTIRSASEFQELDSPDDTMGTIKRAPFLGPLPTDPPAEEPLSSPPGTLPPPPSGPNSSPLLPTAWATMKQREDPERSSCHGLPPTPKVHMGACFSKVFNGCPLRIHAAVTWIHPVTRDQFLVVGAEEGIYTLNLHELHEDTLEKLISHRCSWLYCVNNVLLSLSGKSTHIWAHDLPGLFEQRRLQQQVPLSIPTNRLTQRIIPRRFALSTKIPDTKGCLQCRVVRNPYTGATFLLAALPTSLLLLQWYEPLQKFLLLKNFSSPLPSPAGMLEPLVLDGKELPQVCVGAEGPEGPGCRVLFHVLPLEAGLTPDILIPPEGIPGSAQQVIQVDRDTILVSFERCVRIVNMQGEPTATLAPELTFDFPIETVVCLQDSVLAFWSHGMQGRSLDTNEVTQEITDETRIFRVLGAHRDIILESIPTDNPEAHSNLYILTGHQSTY
IRE1, sequence (O75460 19-977): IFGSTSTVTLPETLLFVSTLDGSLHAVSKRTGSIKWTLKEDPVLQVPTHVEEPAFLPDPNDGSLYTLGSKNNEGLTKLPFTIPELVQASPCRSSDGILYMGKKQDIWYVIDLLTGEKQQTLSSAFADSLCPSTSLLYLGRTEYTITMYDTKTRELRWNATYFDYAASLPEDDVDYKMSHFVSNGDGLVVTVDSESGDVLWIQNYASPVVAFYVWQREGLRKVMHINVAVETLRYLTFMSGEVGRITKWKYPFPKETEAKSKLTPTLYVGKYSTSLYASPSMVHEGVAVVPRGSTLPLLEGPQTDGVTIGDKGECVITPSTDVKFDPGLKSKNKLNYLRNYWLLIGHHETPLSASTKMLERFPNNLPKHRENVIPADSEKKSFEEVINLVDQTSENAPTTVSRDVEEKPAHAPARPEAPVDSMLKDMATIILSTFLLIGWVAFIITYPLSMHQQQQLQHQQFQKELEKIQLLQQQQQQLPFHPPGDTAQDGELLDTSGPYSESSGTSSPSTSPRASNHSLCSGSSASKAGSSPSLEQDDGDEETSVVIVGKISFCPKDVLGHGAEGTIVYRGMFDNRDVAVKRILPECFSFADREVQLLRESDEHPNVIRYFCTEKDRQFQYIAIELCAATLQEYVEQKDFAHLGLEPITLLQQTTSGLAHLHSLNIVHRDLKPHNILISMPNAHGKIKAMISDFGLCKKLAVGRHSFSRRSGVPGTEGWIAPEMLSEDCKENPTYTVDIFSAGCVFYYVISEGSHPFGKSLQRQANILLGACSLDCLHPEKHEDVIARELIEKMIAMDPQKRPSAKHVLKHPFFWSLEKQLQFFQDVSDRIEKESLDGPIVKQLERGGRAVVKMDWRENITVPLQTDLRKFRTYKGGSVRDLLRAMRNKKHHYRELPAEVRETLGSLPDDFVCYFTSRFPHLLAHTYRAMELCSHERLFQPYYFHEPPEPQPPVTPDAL
p70S6Kb, sequence (Q9UBS0 whole entry): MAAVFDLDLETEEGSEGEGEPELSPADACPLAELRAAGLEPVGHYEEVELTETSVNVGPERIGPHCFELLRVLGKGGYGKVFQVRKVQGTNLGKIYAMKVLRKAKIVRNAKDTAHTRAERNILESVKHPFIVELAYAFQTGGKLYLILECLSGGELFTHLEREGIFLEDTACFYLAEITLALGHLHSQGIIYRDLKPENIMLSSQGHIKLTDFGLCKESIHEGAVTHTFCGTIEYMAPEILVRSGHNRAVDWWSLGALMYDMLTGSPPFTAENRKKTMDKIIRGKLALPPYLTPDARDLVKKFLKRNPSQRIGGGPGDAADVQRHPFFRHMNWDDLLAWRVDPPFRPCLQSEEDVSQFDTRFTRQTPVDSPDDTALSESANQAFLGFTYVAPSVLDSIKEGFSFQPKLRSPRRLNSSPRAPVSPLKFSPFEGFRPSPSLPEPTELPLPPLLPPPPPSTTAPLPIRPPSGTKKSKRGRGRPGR
JAK1 domain1, sequence (P23458 whole entry, the tested form may be a part): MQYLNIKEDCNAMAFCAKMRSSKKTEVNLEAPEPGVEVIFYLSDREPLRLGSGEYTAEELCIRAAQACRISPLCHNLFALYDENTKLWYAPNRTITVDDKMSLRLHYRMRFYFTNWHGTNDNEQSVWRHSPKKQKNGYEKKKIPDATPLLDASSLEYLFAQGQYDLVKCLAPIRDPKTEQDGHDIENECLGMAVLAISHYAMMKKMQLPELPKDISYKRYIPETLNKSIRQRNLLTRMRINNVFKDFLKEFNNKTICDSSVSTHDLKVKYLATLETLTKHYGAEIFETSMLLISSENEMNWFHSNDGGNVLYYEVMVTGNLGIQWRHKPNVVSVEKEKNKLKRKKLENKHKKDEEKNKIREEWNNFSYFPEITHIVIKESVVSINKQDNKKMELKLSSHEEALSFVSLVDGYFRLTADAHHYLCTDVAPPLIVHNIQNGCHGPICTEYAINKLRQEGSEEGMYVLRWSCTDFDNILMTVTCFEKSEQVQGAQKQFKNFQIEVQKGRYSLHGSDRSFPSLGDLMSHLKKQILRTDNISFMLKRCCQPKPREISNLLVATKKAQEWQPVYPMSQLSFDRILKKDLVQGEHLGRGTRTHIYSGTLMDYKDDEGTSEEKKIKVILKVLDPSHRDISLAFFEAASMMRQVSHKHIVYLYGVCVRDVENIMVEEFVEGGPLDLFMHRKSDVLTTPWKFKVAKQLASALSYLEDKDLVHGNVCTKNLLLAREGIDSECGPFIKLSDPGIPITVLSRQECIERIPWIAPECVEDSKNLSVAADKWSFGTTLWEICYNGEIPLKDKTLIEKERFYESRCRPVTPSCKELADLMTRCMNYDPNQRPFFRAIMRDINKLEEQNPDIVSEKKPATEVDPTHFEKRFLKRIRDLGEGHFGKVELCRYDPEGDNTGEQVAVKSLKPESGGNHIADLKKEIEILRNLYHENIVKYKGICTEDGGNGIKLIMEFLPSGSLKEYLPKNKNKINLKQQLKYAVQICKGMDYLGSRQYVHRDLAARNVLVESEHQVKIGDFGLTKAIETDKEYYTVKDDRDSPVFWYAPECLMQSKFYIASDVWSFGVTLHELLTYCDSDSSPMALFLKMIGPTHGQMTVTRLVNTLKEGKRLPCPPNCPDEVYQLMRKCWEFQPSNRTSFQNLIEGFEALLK
JAK1 domain2, sequence (P23458 whole entry, the tested form may be a part): as above
MAP2K4, sequence (P45985 whole entry): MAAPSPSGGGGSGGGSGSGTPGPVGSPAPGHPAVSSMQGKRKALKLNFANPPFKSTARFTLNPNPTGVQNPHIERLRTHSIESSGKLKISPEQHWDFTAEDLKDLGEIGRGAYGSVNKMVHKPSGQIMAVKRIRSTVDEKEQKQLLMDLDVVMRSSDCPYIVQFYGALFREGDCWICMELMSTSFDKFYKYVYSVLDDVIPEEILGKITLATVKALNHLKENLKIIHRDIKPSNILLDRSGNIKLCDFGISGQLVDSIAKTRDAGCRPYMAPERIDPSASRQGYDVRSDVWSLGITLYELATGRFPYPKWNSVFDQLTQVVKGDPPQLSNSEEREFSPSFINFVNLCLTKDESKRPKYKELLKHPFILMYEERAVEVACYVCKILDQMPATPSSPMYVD
MST1, sequence (Q13043 whole entry): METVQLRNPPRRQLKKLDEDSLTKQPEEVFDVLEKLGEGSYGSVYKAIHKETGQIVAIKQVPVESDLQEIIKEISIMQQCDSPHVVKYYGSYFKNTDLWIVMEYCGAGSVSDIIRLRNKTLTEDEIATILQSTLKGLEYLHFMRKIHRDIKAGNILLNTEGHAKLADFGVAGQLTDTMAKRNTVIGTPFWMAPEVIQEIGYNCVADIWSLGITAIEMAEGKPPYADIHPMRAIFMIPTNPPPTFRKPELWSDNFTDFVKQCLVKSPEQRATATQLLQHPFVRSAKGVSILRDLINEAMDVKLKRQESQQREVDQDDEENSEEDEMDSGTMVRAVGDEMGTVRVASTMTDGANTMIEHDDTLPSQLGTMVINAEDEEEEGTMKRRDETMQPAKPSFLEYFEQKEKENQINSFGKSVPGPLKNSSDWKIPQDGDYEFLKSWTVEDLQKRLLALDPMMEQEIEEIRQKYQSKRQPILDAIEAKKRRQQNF
MAP3K2, sequence (Q9Y2U5 whole entry): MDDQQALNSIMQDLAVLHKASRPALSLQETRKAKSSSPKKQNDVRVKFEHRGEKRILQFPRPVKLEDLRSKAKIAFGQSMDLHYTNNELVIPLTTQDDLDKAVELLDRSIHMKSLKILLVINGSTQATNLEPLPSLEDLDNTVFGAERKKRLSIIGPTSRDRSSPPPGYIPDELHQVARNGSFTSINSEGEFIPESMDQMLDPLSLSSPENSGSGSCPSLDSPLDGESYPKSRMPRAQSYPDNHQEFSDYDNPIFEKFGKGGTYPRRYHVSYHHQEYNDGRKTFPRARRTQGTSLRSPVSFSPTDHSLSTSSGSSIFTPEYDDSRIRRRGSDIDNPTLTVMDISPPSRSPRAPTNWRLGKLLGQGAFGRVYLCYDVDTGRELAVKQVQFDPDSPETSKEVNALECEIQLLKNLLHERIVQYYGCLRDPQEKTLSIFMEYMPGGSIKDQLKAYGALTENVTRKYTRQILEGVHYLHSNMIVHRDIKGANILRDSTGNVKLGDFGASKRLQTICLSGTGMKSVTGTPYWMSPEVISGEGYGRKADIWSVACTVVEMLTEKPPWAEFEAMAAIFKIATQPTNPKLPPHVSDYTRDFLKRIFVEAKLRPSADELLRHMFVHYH

Nc1ncc(-c2ccc(NS(=O)(=O)C3CC3)cc2OC2CCCCC2)cc1-c1ccc2c(c1)CCNC2=O [Compound I-65, N-(4-(6-amino-5-(1-oxo-1,2,3,4-tetrahydroisoquinolin-6-yl)pyridin-3-yl)-3-(cyclohexyloxy)phenyl) cyclopropanesulfonamide]
% inhibition ([1]; 10 μM, range class): 0.0%
inhibition (10 μM) [1]: −8.3%
inhibition at 10 µM [2, 35]: 0%
inhibition at 10 µM ([2]; read-out: inhibition (10 μM)): -29.4%
% inhibition ([3]; 10 μM, range class): 0.0%
inhibition (10 μM) [3]: 6.4%
inhibition at 10 µM [4, 35]: 0%
inhibition at 10 µM ([4]; read-out: inhibition (10 μM)): 2.1%
inhibition at 10 µM [5, 35]: > 90%
inhibition at 10 µM ([5]; read-out: inhibition (10 μM)): 96.7%
% inhibition [6]: 0.0%
inhibition at 10 µM [7, 35]: 50 to 75%
inhibition at 10 µM ([7]; read-out: inhibition (10 μM)): 73.3%
inhibition at 10 µM [8, 35]: 75 to 90%
inhibition at 10 µM ([8]; read-out: inhibition (10 μM)): 79.4%
inhibition at 10 µM [9, 35]: 35 to 40%
inhibition at 10 µM ([9]; read-out: inhibition (10 μM)): 36.2%
inhibition at 10 µM [10, 35]: 0%
inhibition at 10 µM ([10]; read-out: inhibition (10 μM)): -6.3%
inhibition at 10 µM [11, 35]: 0%
inhibition at 10 µM ([11]; read-out: inhibition (10 μM)): 30.7%
inhibition at 10 µM [12, 35]: 0%
inhibition at 10 µM ([12]; read-out: inhibition (10 μM)): 11.1%
inhibition at 10 µM [13, 35]: > 90%
inhibition at 10 µM ([13]; read-out: inhibition (10 μM)): 92.5%
inhibition at 10 µM [14, 35]: 35 to 40%
inhibition at 10 µM ([14]; read-out: inhibition (10 μM)): 48.5%
inhibition at 10 µM [15, 35]: 0%
inhibition at 10 µM ([15]; read-out: inhibition (10 μM)): 32%
inhibition at 10 µM [16, 35]: 0%
inhibition at 10 µM ([16]; read-out: inhibition (10 μM)): -1.1%
inhibition at 10 µM [17, 35]: 0%
inhibition at 10 µM ([17]; read-out: inhibition (10 μM)): 22.2%
inhibition at 10 µM [18, 35]: 0%
inhibition at 10 µM ([18]; read-out: inhibition (10 μM)): -12.9%
% inhibition ([19]; 10 μM, range class): >90%
inhibition (10 μM) [19]: 98.7%
inhibition at 10 µM [20, 35]: 0%
inhibition at 10 µM ([20]; read-out: inhibition (10 μM)): -3.9%
inhibition at 10 µM [21, 35]: 0%
inhibition at 10 µM ([21]; read-out: inhibition (10 μM)): 23.7%
inhibition at 10 µM [22, 35]: 0%
inhibition at 10 µM ([22]; read-out: inhibition (10 μM)): 5.8%
inhibition at 10 µM [23, 35]: 0%
inhibition at 10 µM ([23]; read-out: inhibition (10 μM)): -33.4%
inhibition at 10 µM [24, 35]: 0%
inhibition at 10 µM ([24]; read-out: inhibition (10 μM)): 10.1%
inhibition at 10 µM [25, 35]: 0%
inhibition at 10 µM ([25]; read-out: inhibition (10 μM)): 1.6%
% inhibition ([26]; 10 μM, range class): 0.0%
inhibition (10 μM) [26]: −17.5%
inhibition at 10 µM [27, 35]: 0%
inhibition at 10 µM ([27]; read-out: inhibition (10 μM)): 27.8%
% inhibition ([28]; 10 μM, range class): 0.0%
inhibition (10 μM) [28]: −78.6%
inhibition at 10 µM [29, 35]: 0%
inhibition at 10 µM ([29]; read-out: inhibition (10 μM)): -12.4%
inhibition at 10 µM [30, 35]: 0%
inhibition at 10 µM ([30]; read-out: inhibition (10 μM)): -55.9%
inhibition at 10 µM [31, 35]: 0%
inhibition at 10 µM ([31]; read-out: inhibition (10 μM)): -15.3%
inhibition at 10 µM [32, 35]: 0%
inhibition at 10 µM ([32]; read-out: inhibition (10 μM)): -15.9%
inhibition at 10 µM [33, 35]: 50 to 75%
inhibition at 10 µM ([33]; read-out: inhibition (10 μM)): 68.8%
inhibition at 10 µM [34, 35]: 35 to 40%
inhibition at 10 µM ([34]; read-out: inhibition (10 μM)): 48.7%
